Measured values taken from patent publication US20260083704A1, “LXR MODULATORS WITH BICYCLIC CORE MOIETY FOR TREATING DYSLIPIDEMIAS” (OrsoBio, Inc., priority 2022, published 2026).
Marks after values point to notes of the source that are not given here.

Tests used:
[1] = system: steatotic human liver organoids (sHLO); test: Steatotic human liver organoid (sHLO) model; format: cell-based; details: 3 days
Experimental: Data in FIG. 2A are obtained from (Ouchi, Togo et al. 2019). Data are shown as mean±SD. n=4 wells per treatment.
Activity of Compound 21/3 was also evaluated in an induced pluripotent stem cell (iPSC)-derived human liver organoid (HLO) model established from human donors with different genetic backgrounds, including those with known genetic risk variants for NASH (Ouchi, Togo et al. 2019). The HLOs were exposed to high concentrations of lipid to induce a reproducible steatotic NASH phenotype (sHLO) with increased expression of DNL genes, including NR1H3, the gene that encodes LXRα (FIG. 2A) (Ouchi, Togo et al. 2019, Minniti, Pedrelli et al. 2020). […] Mutations in GCKR have been associated with increased circulating lipids, hepatic DNL, and diseases including diabetes and NASH (Fernandes Silva, Vangipurapu et al. 2019).

ApoC3 and ANGPTL3 = test: Phase 1 study, MAD cohorts: plasma ApoC3 and ANGPTL3 by ELISA; format: in vivo, human; details: healthy subjects, Day 1 to Day 14, 12 h postdose
Experimental: Lipid parameters, including apolipoprotein B (apoB), were evaluated by NMR LipoProfile® (Labcorp, Burlington, NC. Plasma ApoC3 and ANGPTL3 were evaluated by ELISA (360biolabs, Melbourne, Australia). Peripheral RCT (reverse cholesterol transport) were evaluated by assessing changes in expression of ABCA1/ABCG1 in PBMCs, predose and 4 hours postdose on Days 1 and 14 (Gnomix, Bedford Park, Australia).
In FIG. 14A to 14C, ApoC3 and ANGPTL3 measured 12 h postdose. RCT assessed predose and 4 h postdose on Day 14.

healthy subjects = test: Phase 1 study, MAD cohorts: safety and tolerability; format: in vivo, human; details: for Abdominal pain / Any TEAE / Back pain / Diarrhea / Grade ≥2 TEAE / Headache / Pruritis / Serious TEAE / TEAE leading to study drug discontuation / Treatment-related TEAE / subjects with mild (Grade 1), transient increase in serum ALT: MAD; for Abdominal pain / Any TEAE / Back pain / Diarrhea / Grade ≥2 TEAE / Headache / Pruritis / Serious TEAE / TEAE leading to study drug discontuation / Treatment-related TEAE: n = 8
Experimental: A double-blind, placebo-controlled, single- and multiple-ascending dose FIH Phase 1 study to evaluate the safety, tolerability, PK, and PD of Compound 21/3 in healthy adult subjects was performed. A total of up to 150 subjects were enrolled, including 100 subjects in Parts A and B, and up to 50 subjects in adaptive cohorts in Part C. Within each cohort, 10 subjects were randomized, including 8 subjects randomized to Compound 21/3 and 2 subjects to PTM (placebo-to-match). In single-dose cohorts in Parts A and in any Part C cohort evaluating a higher total daily dose than previously evaluated, safety and tolerability data collected through Day 2 from two sentinel subjects, one randomized to Compound 21/3 and one to PTM, were evaluated prior to dosing of the remaining subjects in each cohort.
An approximately even distribution of healthy male and non-pregnant, non-lactating female subjects 18 to 55 years of age, inclusive, were to be enrolled in the study. There were no significant medical conditions by history, physical examination, or laboratory evaluation. Subjects were not allowed to participate in more than one cohort of the study. Within each MAD cohort, attempts were made to enrich for >3 subjects with elevated TG and/or LDL-C. Following the completion of Screening and admission assessments, eligible subjects were to be enrolled on Day −1. Safety and tolerability assessments, including adverse event (AE) monitoring, laboratory tests, physical examinations, and ECG evaluations were performed throughout the study.
The severity of AEs was graded using the Common Terminology Criteria for Adverse Events version 5.0 (CTCAE v5.0).

[2] = system: CDHFD/sodium nitrate-treated Wistar Han rats; test: CDHFD/sodium nitrate rat model of NASH with advanced fibrosis; format: in vivo; details: 5 mg/kg once daily oral
Excerpt: Data are shown as mean±SD. N=7-8 animals per group. *p≤0.05, **p≤0.01, ***p≤0.001, ****p≤0.0001 Mann-Whitney test.
The CDHFD model of NASH is characterized by reduced phosphatidylcholine synthesis in the liver and impaired TG secretion in VLDL particles, which results in hepatic lipid accumulation, inflammation, oxidative stress, and severe fibrosis. Liver injury in CDHFD-fed rats can be exacerbated by further inducing hypoxia using sodium nitrate (Takayama, Egashira et al. 2009). Wistar Han rats were treated with CDHFD/sodium nitrate for a total of 12 weeks and dosed with Compound pre-6/3 (5 mg/kg once daily by oral gavage) from Weeks 6 to 12. […] Moreover, compared with vehicle treatment, Compound pre-6/3 decreased hepatic hydroxyproline and collagen content by 64% (p≤0.001) and 50% (p≤0.001), respectively (FIG. 8B-C).

SMILES: N#Cc1cccc(C#N)c1-c1c(-c2cccc(-c3ccc(C(=O)NCC(=O)O)cc3Cl)c2)n(S(=O)(=O)c2ccc(C(F)F)cc2)c2ccc(F)cc12 [Compound 21/3]
- intracellular lipid content ([1]; patient-derived sHLOs): dose-dependently reduced
- expression of DNL-associated genes ([1]; sHLOs from GCKR wild-type (CC) or mutant (TT) carriers): suppressed
- plasma ApoC3 and ANGPTL3 (ApoC3 and ANGPTL3): reduces
- Abdominal pain (healthy subjects; 0.5 mg, fed): 1 (13)
- Any TEAE (healthy subjects; 0.5 mg, fed): 7 (88)
- Back pain (healthy subjects; 0.5 mg, fed): 0 (0)
- Diarrhea (healthy subjects; 0.5 mg, fed): 2 (25)
- Grade ≥2 TEAE (healthy subjects; 0.5 mg, fed): 0 (0)
- Headache (healthy subjects; 0.5 mg, fed): 1 (13)
- Pruritis (healthy subjects; 0.5 mg, fed): 4 (50)
- Serious TEAE (healthy subjects; 0.5 mg, fed): 0 (0)
- TEAE leading to study drug discontuation (healthy subjects; 0.5 mg, fed): 0 (0)
- Treatment-related TEAE (healthy subjects; 0.5 mg, fed): 0 (0)
- Abdominal pain (healthy subjects; 2 mg, fed): 0 (0)
- Any TEAE (healthy subjects; 2 mg, fed): 3 (38)
- Back pain (healthy subjects; 2 mg, fed): 0 (0)
- Diarrhea (healthy subjects; 2 mg, fed): 0 (0)
- Headache (healthy subjects; 2 mg, fed): 0 (0)
- Pruritis (healthy subjects; 2 mg, fed): 0 (0)
- Serious TEAE (healthy subjects; 2 mg, fed): 0 (0)
- TEAE leading to study drug discontuation (healthy subjects; 2 mg, fed): 0 (0)
- Treatment-related TEAE (healthy subjects; 2 mg, fed): 0 (0)
- Grade ≥2 TEAE (healthy subjects; 2 mg, fed, Grade 2 thrombophlebitis considered unrelated to study treatment): 1 (13)*
- Abdominal pain (healthy subjects; 6 mg (fasted)): 1 (13)
- Any TEAE (healthy subjects; 6 mg (fasted)): 1 (13)
- Back pain (healthy subjects; 6 mg (fasted)): 0 (0)
- Diarrhea (healthy subjects; 6 mg (fasted)): 0 (0)
- Grade ≥2 TEAE (healthy subjects; 6 mg (fasted)): 0 (0)
- Headache (healthy subjects; 6 mg (fasted)): 0 (0)
- Pruritis (healthy subjects; 6 mg (fasted)): 0 (0)
- Serious TEAE (healthy subjects; 6 mg (fasted)): 0 (0)
- TEAE leading to study drug discontuation (healthy subjects; 6 mg (fasted)): 0 (0)
- Treatment-related TEAE (healthy subjects; 6 mg (fasted)): 0 (0)
- Abdominal pain (healthy subjects; 6 mg, fed): 1 (13)
- Any TEAE (healthy subjects; 6 mg, fed): 5 (63)
- Back pain (healthy subjects; 6 mg, fed): 2 (25)
- Diarrhea (healthy subjects; 6 mg, fed): 1 (13)
- Grade ≥2 TEAE (healthy subjects; 6 mg, fed): 0 (0)
- Headache (healthy subjects; 6 mg, fed): 1 (13)
- Pruritis (healthy subjects; 6 mg, fed): 0 (0)
- Serious TEAE (healthy subjects; 6 mg, fed): 0 (0)
- TEAE leading to study drug discontuation (healthy subjects; 6 mg, fed): 0 (0)
- Treatment-related TEAE (healthy subjects; 6 mg, fed): 1 (13)
- Abdominal pain (healthy subjects; 12 mg, fed): 1 (13)
- Any TEAE (healthy subjects; 12 mg, fed): 3 (38)
- Back pain (healthy subjects; 12 mg, fed): 0 (0)
- Diarrhea (healthy subjects; 12 mg, fed): 2 (25)
- Grade ≥2 TEAE (healthy subjects; 12 mg, fed): 0 (0)
- Headache (healthy subjects; 12 mg, fed): 2 (25)
- Pruritis (healthy subjects; 12 mg, fed): 0 (0)
- Serious TEAE (healthy subjects; 12 mg, fed): 0 (0)
- TEAE leading to study drug discontuation (healthy subjects; 12 mg, fed): 0 (0)
- Treatment-related TEAE (healthy subjects; 12 mg, fed): 2 (25)
- tolerability (healthy subjects; healthy subjects, 0.5, 2, 6, and 12 mg for 14 days): well tolerated
- subjects with treatment-related TEAEs (all mild, gastrointestinal) (healthy subjects; healthy subjects, MAD cohorts): 3 subjects
- proportion of subjects with adverse events (AEs) (healthy subjects; healthy subjects, MAD cohorts, range over dose groups): 13-88%
- subjects with mild (Grade 1), transient increase in serum ALT (healthy subjects; healthy subjects, 6 mg group, fed): one
- subjects with mild (Grade 1), transient increase in serum ALT (healthy subjects; healthy subjects, 12 mg group, fed): 4 subjects
- safety and tolerability (healthy subjects; healthy subjects, single and multiple daily doses up to 20 mg/d for 14 days): safe and well tolerated

SMILES: N#Cc1cccc(C#N)c1-c1c(-c2cccc(-c3ccc(C(=O)O)cc3Cl)c2)n(S(=O)(=O)c2ccc(C(F)F)cc2)c2ccc(F)cc12 [pre-6/3]
- fibrosis (picrosirus red staining) ([2]; Weeks 6 to 12): significantly decreased
- hepatic expression of DNL genes (Srebp1c, Scd1, Fasn) and fibrogenesis genes (Timp1, Col1a1, Acta2) ([2]; Weeks 6 to 12): decreased
- liver TG content ([2]; Weeks 6 to 12): decreased
- decrease of hepatic collagen content compared with vehicle ([2]; Weeks 6 to 12, p≤0.001): 50%
- decrease of hepatic hydroxyproline content compared with vehicle ([2]; Weeks 6 to 12, p≤0.001): 64%
